From patent US10813891B2, “Method of inhibiting chronification of pain” (priority 2011, dated 2020)

Columns and labels:
[1] = tested on: CCI-ION rats; type: in vivo, rat
Procedure: Male Sprague-Dawley rats (Charles River Laboratories, L'Arbresle, France), weighing 150-200 g on arrival, were used. Animals were maintained under controlled environmental conditions (22±1° C., 60% relative humidity, 12 h/12 h light/dark cycle, food and water ad libitum) starting from reception in the laboratory, for at least 1 week before any intervention or treatment and thereafter, until euthanasia.
Rats were anaesthetized with sodium pentobarbital (50 mg/kg i.p.). Unilateral CCI-ION was performed under direct visual control using a Zeiss microscope (10-25×). Briefly, the head was fixed in a Horsley-Clarke stereotaxic frame and a midline scalp incision was made, exposing skull and nasal bone. The edge of the orbit, formed by the maxillary, frontal, lacrimal, and zygomatic bones, was dissected free. The orbital contents were then gently deflected to give access to the infraorbital nerve which was dissected free at its most rostral extent in the orbital cavity, just caudal to the infraorbital foramen. Only 5 mm of the nerve could be freed, providing the space for placement of two chromic catgut (5-0) ligations tied loosely (with about 2 mm spacing) around it. […] Finally, scalp incision was closed using silk sutures (4-0). In sham-operated rats, the ION was exposed using the same procedure, but was not ligated.
Tapentadol (1, 3 and 10 mg/kg i.p.), reboxetine (10 mg/kg i.p.), morphine (1 and 3 mg/kg s.c.) or their vehicle (0.9% NaCl) were injected acutely 14 days after surgery, when allodynia/hyperalgesia reached a plateau in both CCI-SN and CCI-ION rats. Behavioral tests were performed at various times for up to 4 h after injection. In drug association procedure, reboxetine or saline was administered 15 min before morphine or saline.
(§1) Subchronic treatment consisted of twice daily injections of tapentadol (10 mg/kg, i.p. at 10:00 am and 6:00 pm) or saline for 4 days starting on the 15th day after nerve ligation in both CCI-ION and CCI-SN rats. Animals were further injected with tapentadol (10 mg/kg i.p.) or saline at 10:00 am the following day (19th day post-surgery), and assessment of allodynia with von Frey filament tests (see below) was made at various times up to 4 hours after this injection. All rats were killed by decapitation 4 hours after the last injection for real-time qRT-PCR determinations of specific mRNAs in ganglia and central tissues (see below).
Rats were placed individually in small (35×20×15 cm) plastic cages for a 2 h habituation period. Before any stimulation session, rats freely explored the observation cage and the testing environments for 2 h. Then mechanical sensitivity was determined with a graded series of […] von Frey filaments (Bioseb, Bordeaux, France). The filaments produced a bending force of 0.40, 0.60, 1.00, 2.00, 4.00, 6.00, 8.00, 10.00 and 12.00 g, respectively. The stimuli were applied within the ION territory (vibrissae pad) three times on the nerve-injured side and then on the contralateral side for a total of 6 applications of each filament per rat, always beginning with the filament producing the lowest force. The von Frey filaments were applied at least 3 seconds after the rat had returned to its initial resting state. For each session, the complete series of von Frey filaments was tested in increasing force order. […] The latter responses represented the highest scores in the rank-ordered response scoring system initially described by Vos et al. (1994). Under our own conditions, the mechanical response threshold was determined as the minimal force filament causing at least one among these responses to at least 2 out of the 3 applications in vibrissae territory. […] To avoid nonspecific responses, only these rats were included in the study.

[2] = tested on: mRNA encoding ATF3, IL-6 and BDNF; test: Real time qRT-PCR of mRNA in trigeminal ganglion and Sp5c of CCI-ION rats; type: in vivo, rat; details: subchronic 10 mg/kg i.p. twice daily; ipsilateral trigeminal ganglion and Sp5c area; 4 h after last injection
Procedure: as §1
Animals used for qRT-PCR procedure were decapitated immediately after performance of von Frey filament test four hours after the last injection of tapentadol or saline for subchronic treatment conditions (see above). […]
First-stranded cDNA synthesis (from 660 ng total RNA per 20 μl reaction mixture) was carried out using SuperScript™ III Reverse Transcriptase and random primers (250 ng per reaction), as recommended by the manufacturer (Invitrogen, Cergy Pontoise, France). […] Semi-quantitative determinations were made with reference to the reporter gene encoding glyceraldehyde 3-phosphate dehydrogenase (GaPDH; Rn99999916_sl). […] Specific mRNA levels were calculated after normalizing from GaDPH mRNA in each sample (Latrémolière et al., 2008). […]

For `CC[C@@H](c1cccc(O)c1)[C@@H](C)CN(C)C` [Tapentadol, (−)-(1R,2R)-3-(3-dimethylamino-1-ethyl-2-methyl-propyl)-phenol], the “anti-allodynic effect after subchronic pretreatment vs saline pretreatment” value ([1]; 10 mg/kg i.p. twice daily for four days, challenge 10 mg/kg i.p. day 19) was “had the same characteristics (amplitude, duration)”, the “increase in pressure threshold value compared to saline-treated CCI-ION rats” value ([1]; acute 1 mg/kg i.p., first 45 min) was “up to 6 fold” and the “duration of statistically significant anti-allodynic effect” value ([1]; acute 10 mg/kg i.p.) was “at least two hours”. For the same compound, the “pressure threshold values higher than those determined prior to injection” value ([1]; acute 10 mg/kg i.p., 30-60 min after injection) was 15-20 fold and the “ATF3, IL-6 and BDNF mRNA levels” value [2] was “had no significant effects”.
